The NIST ThermoML archive (doi:10.1016/j.jct.2014.01.008)
Values joined by “and” are separate entries in the source; they are usually repeats but may differ in a detail not shown here. Equal values may be shown once. ± gives the expanded uncertainty stated by the source.

What was measured:
[1] = Liquid, Falling or rolling sphere viscometry
[2] = Solid-liquid equilibrium temperature; settings: Crystal, visual observation

CCCCCCCCCCCCCCCCCCCC [eicosane]
[1]
Settings | viscosity
325.8 K, 6700 kPa | 3.184 ± 0.086 mPa·s and 3.193 ± 0.086 mPa·s
325.8 K, 14400 kPa | 3.511 ± 0.094 mPa·s and 3.528 ± 0.095 mPa·s
325.8 K, 21300 kPa | 3.828 ± 0.1 mPa·s
325.8 K, 22300 kPa | 3.908 ± 0.11 mPa·s
325.8 K, 28700 kPa | 4.25 ± 0.11 mPa·s
325.8 K, 35500 kPa | 4.642 ± 0.12 mPa·s
429.3 K, 5500 kPa | 0.837 ± 0.027 mPa·s
429.3 K, 7400 kPa | 0.858 ± 0.028 mPa·s
429.3 K, 21800 kPa | 1.029 ± 0.034 mPa·s
429.3 K, 41800 kPa | 1.262 ± 0.041 mPa·s
429.3 K, 63000 kPa | 1.498 ± 0.048 mPa·s and 1.523 ± 0.049 mPa·s
429.3 K, 83000 kPa | 1.777 ± 0.057 mPa·s
429.3 K, 103700 kPa | 2.043 ± 0.065 mPa·s
429.3 K, 125000 kPa | 2.351 ± 0.075 mPa·s
429.3 K, 144500 kPa | 2.631 ± 0.083 mPa·s
429.3 K, 144700 kPa | 2.638 ± 0.084 mPa·s
429.3 K, 167900 kPa | 2.988 ± 0.095 mPa·s
429.3 K, 187900 kPa | 3.321 ± 0.11 mPa·s
429.3 K, 208900 kPa | 3.685 ± 0.12 mPa·s
429.3 K, 228600 kPa | 4.04 ± 0.13 mPa·s
429.3 K, 243100 kPa | 4.327 ± 0.14 mPa·s
533.8 K, 6200 kPa | 0.346 ± 0.011 mPa·s
533.8 K, 22900 kPa | 0.425 ± 0.014 mPa·s
533.8 K, 43300 kPa | 0.541 ± 0.017 mPa·s
533.8 K, 43500 kPa | 0.541 ± 0.017 mPa·s
533.8 K, 63200 kPa | 0.647 ± 0.021 mPa·s
533.8 K, 84300 kPa | 0.75 ± 0.024 mPa·s
533.8 K, 104400 kPa | 0.861 ± 0.028 mPa·s
533.8 K, 125000 kPa | 0.977 ± 0.032 mPa·s
533.8 K, 146100 kPa | 1.097 ± 0.036 mPa·s
533.8 K, 165900 kPa | 1.199 ± 0.039 mPa·s
533.8 K, 187300 kPa | 1.341 ± 0.044 mPa·s
533.8 K, 208200 kPa | 1.444 ± 0.047 mPa·s
533.8 K, 228800 kPa | 1.556 ± 0.051 mPa·s

[2]
Settings | Solid-liquid equilibrium temperature [K]
21600 kPa | 315.6 ± 0.7
61500 kPa | 325.3 ± 0.7
105500 kPa | 334.8 ± 0.7
153800 kPa | 344.6 ± 0.7
218800 kPa | 355.9 ± 0.7
263800 kPa | 364.3 ± 0.7

CCCCCCCCCCCCCCCC [hexadecane]
[1]
Settings | viscosity
303.9 K, 3300 kPa | 2.826 ± 0.08 mPa·s
303.9 K, 7300 kPa | 2.959 ± 0.084 mPa·s
303.9 K, 12900 kPa | 3.184 ± 0.089 mPa·s
303.9 K, 19000 kPa | 3.454 ± 0.098 mPa·s
303.9 K, 26800 kPa | 3.793 ± 0.11 mPa·s
303.9 K, 33600 kPa | 4.107 ± 0.12 mPa·s
325.7 K, 8100 kPa | 1.943 ± 0.059 mPa·s
325.7 K, 8300 kPa | 1.956 ± 0.059 mPa·s
325.7 K, 21500 kPa | 2.263 ± 0.069 mPa·s
325.7 K, 35600 kPa | 2.675 ± 0.082 mPa·s
325.7 K, 49300 kPa | 3.067 ± 0.082 mPa·s
325.7 K, 63600 kPa | 3.55 ± 0.098 mPa·s
325.7 K, 77500 kPa | 4.056 ± 0.11 mPa·s
325.7 K, 91800 kPa | 4.625 ± 0.13 mPa·s
325.7 K, 104100 kPa | 5.179 ± 0.14 mPa·s
325.7 K, 119200 kPa | 5.865 ± 0.16 mPa·s
325.7 K, 122700 kPa | 6.07 ± 0.17 mPa·s
429.1 K, 12800 kPa | 0.582 ± 0.019 mPa·s and 0.586 ± 0.019 mPa·s
429.1 K, 22200 kPa | 0.649 ± 0.036 mPa·s
429.1 K, 22700 kPa | 0.65 ± 0.036 mPa·s
429.1 K, 35800 kPa | 0.742 ± 0.024 mPa·s
429.1 K, 70500 kPa | 1.01 ± 0.034 mPa·s
429.1 K, 91600 kPa | 1.181 ± 0.04 mPa·s
429.1 K, 118800 kPa | 1.405 ± 0.048 mPa·s
429.1 K, 140300 kPa | 1.594 ± 0.05 mPa·s
429.1 K, 167800 kPa | 1.847 ± 0.058 mPa·s
429.1 K, 188000 kPa | 2.046 ± 0.065 mPa·s
429.1 K, 222900 kPa | 2.459 ± 0.078 mPa·s
533.7 K, 14100 kPa | 0.272 ± 0.009 mPa·s
533.7 K, 14300 kPa | 0.276 ± 0.009 mPa·s
533.7 K, 29900 kPa | 0.341 ± 0.011 mPa·s
533.7 K, 30100 kPa | 0.342 ± 0.011 mPa·s
533.7 K, 50400 kPa | 0.43 ± 0.014 mPa·s
533.7 K, 50500 kPa | 0.433 ± 0.014 mPa·s
533.7 K, 77100 kPa | 0.534 ± 0.017 mPa·s
533.7 K, 104600 kPa | 0.642 ± 0.021 mPa·s
533.7 K, 125000 kPa | 0.721 ± 0.023 mPa·s
533.7 K, 152800 kPa | 0.829 ± 0.026 mPa·s
533.7 K, 188400 kPa | 0.983 ± 0.031 mPa·s
533.7 K, 210000 kPa | 1.077 ± 0.035 mPa·s
533.7 K, 226600 kPa | 1.154 ± 0.037 mPa·s

[2]
Settings | Solid-liquid equilibrium temperature [K]
54300 kPa | 303.6 ± 0.7
106300 kPa | 314.5 ± 0.7
158900 kPa | 325 ± 0.7
210600 kPa | 333.9 ± 0.7
267700 kPa | 344.4 ± 0.7

CCCCCCCCCCCCCCCCCC [octadecane]
[1]
Settings | viscosity
325.6 K, 9800 kPa | 2.598 ± 0.07 mPa·s
325.6 K, 16400 kPa | 2.778 ± 0.075 mPa·s
325.6 K, 29600 kPa | 3.247 ± 0.087 mPa·s
325.6 K, 37200 kPa | 3.568 ± 0.096 mPa·s
325.6 K, 51000 kPa | 4.157 ± 0.11 mPa·s
325.6 K, 60500 kPa | 4.578 ± 0.13 mPa·s
325.6 K, 69000 kPa | 4.98 ± 0.14 mPa·s
325.6 K, 70800 kPa | 5.095 ± 0.14 mPa·s
428.9 K, 6800 kPa | 0.685 ± 0.023 mPa·s
428.9 K, 21900 kPa | 0.831 ± 0.027 mPa·s
428.9 K, 42100 kPa | 1.023 ± 0.033 mPa·s
428.9 K, 63400 kPa | 1.232 ± 0.041 mPa·s
428.9 K, 84300 kPa | 1.446 ± 0.047 mPa·s
428.9 K, 104900 kPa | 1.649 ± 0.053 mPa·s
428.9 K, 125500 kPa | 1.878 ± 0.059 mPa·s
428.9 K, 147800 kPa | 2.125 ± 0.067 mPa·s
428.9 K, 168000 kPa | 2.392 ± 0.076 mPa·s
428.9 K, 188600 kPa | 2.65 ± 0.084 mPa·s
428.9 K, 209600 kPa | 2.928 ± 0.092 mPa·s
428.9 K, 230000 kPa | 3.207 ± 0.1 mPa·s
428.9 K, 243100 kPa | 3.396 ± 0.11 mPa·s
533.9 K, 9200 kPa | 0.303 ± 0.01 mPa·s
533.9 K, 9500 kPa | 0.305 ± 0.01 mPa·s
533.9 K, 15200 kPa | 0.336 ± 0.011 mPa·s
533.9 K, 22500 kPa | 0.38 ± 0.012 mPa·s
533.9 K, 44600 kPa | 0.497 ± 0.016 mPa·s
533.9 K, 64000 kPa | 0.579 ± 0.019 mPa·s
533.9 K, 85700 kPa | 0.686 ± 0.022 mPa·s
533.9 K, 105900 kPa | 0.784 ± 0.025 mPa·s
533.9 K, 126600 kPa | 0.88 ± 0.028 mPa·s
533.9 K, 147600 kPa | 0.975 ± 0.031 mPa·s and 0.985 ± 0.032 mPa·s
533.9 K, 167700 kPa | 1.077 ± 0.035 mPa·s
533.9 K, 188600 kPa | 1.201 ± 0.039 mPa·s
533.9 K, 209100 kPa | 1.313 ± 0.042 mPa·s
533.9 K, 229300 kPa | 1.411 ± 0.045 mPa·s
533.9 K, 242900 kPa | 1.491 ± 0.048 mPa·s

[2]
Settings | Solid-liquid equilibrium temperature [K]
59900 kPa | 315.2 ± 0.7
102800 kPa | 324.6 ± 0.7
151000 kPa | 334.8 ± 0.7
205400 kPa | 344.7 ± 0.7
256400 kPa | 354.2 ± 0.7
